Experimental data: article PMC4306137, “The First Small-Molecule Inhibitors of Members of the Ribonuclease E Family” (Scientific Reports, 2015)
“And” between values parts separate entries of the source, which are not always exact repeats. Equal entries are not always repeated. “Also recorded” adds a separate entry of the source.

Experiments:
E. coli NTH-RNase E [1] = molecular target: T1, E. coli NTH-RNase E (Escherichia coli, UniProt P21513); assay: SPR binding to immobilized E. coli NTH-RNase E; conditions: for SPR binding curve behaviour (specific or non-specific binding): E. coli NTH-RNase E, plateau at higher concentrations = specific; for Steady State KD value: apparent KD from SPR steady state fit, binding to E. coli RNase E, PBS with 5% DMSO; for Kd: read-out: Steady State KD value
Experimental: (§1) E. coli and M. tuberculosis RNase E were immobilized covalently using amine coupling to the surface of a Biacore CM5 sensor chip (GE Healthcare). Immobilization levels were approximately 1500 RUs. Assessment of compound binding were conducted by injecting varying compound concentrations in PBS containing 5% DMSO at flow rates of 30–90 μl/min for ~60 s over the reference and test flow cells. A Biacore T100 instrument was used and the data collected was reference and buffer subtracted prior to steady state analysis using data fitting functions provided in the Biacore T100 Evaluation Software.

E. coli NTH-RNase E [2] = molecular target: T1, E. coli NTH-RNase E; assay: Discontinuous cleavage assay (pBR13-fl substrate), E. coli NTH-RNase E; type: biochemical; conditions: for IC50: E. coli enzyme, pre-incubation 37°C 20 min, 20% DMSO, NI = no inhibition (up to 40 mM tested), read-out: Nominal IC50 RNase E; for Inhibition of catalysis by E. coli RNase E (in words): discontinuous cleavage assay, conditions used
E. coli RNase G = molecular target: T2, E. coli RNase G (Escherichia coli, UniProt P0A9J0); assay: Discontinuous cleavage assay, E. coli RNase G; type: biochemical; conditions: for IC50: E. coli enzyme, conditions as for RNase E, NI = no inhibition (up to 40 mM tested), read-out: Nominal IC50 RNase G; for Inhibition of the activity of RNase G (in words): E. coli RNase G
T2 construct: made in house
Experimental: The compounds were obtained from Maybridge and re-suspended in 100% DMSO. Discontinuous cleavage assays were done using a 3′ fluorescein-labelled, 5′-monophosphorylated version of BR13, a well-characterised substrate of RNase E, with the sequence 5′-[…]↓AUUUG[44]. E. coli NTH-RNase E was pre-incubated with and without the compounds at 37°C for 20 min before the addition of substrate in a buffer containing 25 mM Bis-Tris Propane (pH 8.3), 100 mM NaCl, 15 mM MgCl2, 0.1% Triton X-100, 1 mM DTT and 20% DMSO. The enzyme monomer and substrate concentrations at the start of the reaction were 0.5 and 62 nM, respectively. The inhibition assays with RNase G and RNase A (Sigma) were carried out as above. Reaction products were analysed by electrophoresis using a denaturing 15% polyacrylamide, sequencing-type gel. Detection was via a FLA-5100 scanner (Fuji). Substrate and product were quantified using AIDA software (Raytest Isotopenmessgerate GmbH). Initial rates of reaction at increasing compound concentrations were obtained by establishing the slope representing percentage product generated over time during the initial, linear phase of the reaction. IC50 values were calculated by plotting the percentage inhibition of initial rate against compound concentration.

M. tuberculosis RNase E [3] = molecular target: T3, M. tuberculosis RNase E (Mycobacterium tuberculosis, UniProt P71905); assay: Cleavage of pBR13-fl by M. tuberculosis RNase E; type: biochemical; conditions: 5 mM compound; room temperature; 5% DMSO
Experimental: For M. tuberculosis RNase E (a kind gift from Prof. B. Luisi, University of Cambridge), 1 μM 3′ fluorescently-labelled, 5′ monophosphorylated BR13 was incubated with 50 nM RNase E with and without the compounds in buffer containing 25 mM Tris-HCl (pH 7.5), 100 mM NaCl, 15 mM MgCl2, 1 mM DTT and 5% DMSO at room temperature. Reactions were analysed by electrophoresis using denaturing 20% polyacrylamide gels and visualised using a UV transilluminator.

M. tuberculosis RNase E [4] = molecular target: T3, M. tuberculosis RNase E; assay: SPR binding to immobilized M. tuberculosis RNase E; conditions: data not shown
Experimental: as §1

[5] = compounds at their E. coli RNase E IC50 concentration: 1.9 mM P10, 1.8 mM P11, 3.8 mM M5, combinations at the same concentrations, read-out: Initial rate normalised to 1 for the reaction containing no compound

T1 sequence (P21513 1-529): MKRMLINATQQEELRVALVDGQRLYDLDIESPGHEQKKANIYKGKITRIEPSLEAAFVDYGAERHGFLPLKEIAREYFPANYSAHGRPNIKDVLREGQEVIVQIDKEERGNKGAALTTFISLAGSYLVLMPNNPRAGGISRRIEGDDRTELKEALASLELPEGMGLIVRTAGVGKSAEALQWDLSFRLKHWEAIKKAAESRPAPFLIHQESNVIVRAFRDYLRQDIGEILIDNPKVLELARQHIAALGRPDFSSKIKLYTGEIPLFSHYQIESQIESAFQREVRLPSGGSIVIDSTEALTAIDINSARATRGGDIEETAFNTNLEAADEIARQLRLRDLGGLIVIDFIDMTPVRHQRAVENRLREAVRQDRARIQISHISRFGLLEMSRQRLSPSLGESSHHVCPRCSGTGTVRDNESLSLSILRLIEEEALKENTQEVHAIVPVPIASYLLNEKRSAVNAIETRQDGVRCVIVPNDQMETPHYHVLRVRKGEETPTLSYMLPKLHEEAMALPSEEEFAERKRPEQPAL
T2 sequence (P0A9J0 whole entry): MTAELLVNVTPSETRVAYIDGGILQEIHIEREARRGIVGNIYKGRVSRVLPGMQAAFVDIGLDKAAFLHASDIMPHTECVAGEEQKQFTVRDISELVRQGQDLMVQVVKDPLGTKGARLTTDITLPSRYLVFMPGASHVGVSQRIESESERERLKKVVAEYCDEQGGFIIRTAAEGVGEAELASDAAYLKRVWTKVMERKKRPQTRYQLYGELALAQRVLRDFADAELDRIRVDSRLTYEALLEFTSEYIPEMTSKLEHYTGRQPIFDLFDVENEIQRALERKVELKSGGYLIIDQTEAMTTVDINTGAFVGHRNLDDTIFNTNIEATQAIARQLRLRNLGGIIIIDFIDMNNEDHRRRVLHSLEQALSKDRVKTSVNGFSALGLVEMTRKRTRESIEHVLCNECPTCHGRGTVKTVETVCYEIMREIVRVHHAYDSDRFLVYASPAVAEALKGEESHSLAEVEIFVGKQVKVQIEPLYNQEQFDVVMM
T3 sequence (P71905 whole entry): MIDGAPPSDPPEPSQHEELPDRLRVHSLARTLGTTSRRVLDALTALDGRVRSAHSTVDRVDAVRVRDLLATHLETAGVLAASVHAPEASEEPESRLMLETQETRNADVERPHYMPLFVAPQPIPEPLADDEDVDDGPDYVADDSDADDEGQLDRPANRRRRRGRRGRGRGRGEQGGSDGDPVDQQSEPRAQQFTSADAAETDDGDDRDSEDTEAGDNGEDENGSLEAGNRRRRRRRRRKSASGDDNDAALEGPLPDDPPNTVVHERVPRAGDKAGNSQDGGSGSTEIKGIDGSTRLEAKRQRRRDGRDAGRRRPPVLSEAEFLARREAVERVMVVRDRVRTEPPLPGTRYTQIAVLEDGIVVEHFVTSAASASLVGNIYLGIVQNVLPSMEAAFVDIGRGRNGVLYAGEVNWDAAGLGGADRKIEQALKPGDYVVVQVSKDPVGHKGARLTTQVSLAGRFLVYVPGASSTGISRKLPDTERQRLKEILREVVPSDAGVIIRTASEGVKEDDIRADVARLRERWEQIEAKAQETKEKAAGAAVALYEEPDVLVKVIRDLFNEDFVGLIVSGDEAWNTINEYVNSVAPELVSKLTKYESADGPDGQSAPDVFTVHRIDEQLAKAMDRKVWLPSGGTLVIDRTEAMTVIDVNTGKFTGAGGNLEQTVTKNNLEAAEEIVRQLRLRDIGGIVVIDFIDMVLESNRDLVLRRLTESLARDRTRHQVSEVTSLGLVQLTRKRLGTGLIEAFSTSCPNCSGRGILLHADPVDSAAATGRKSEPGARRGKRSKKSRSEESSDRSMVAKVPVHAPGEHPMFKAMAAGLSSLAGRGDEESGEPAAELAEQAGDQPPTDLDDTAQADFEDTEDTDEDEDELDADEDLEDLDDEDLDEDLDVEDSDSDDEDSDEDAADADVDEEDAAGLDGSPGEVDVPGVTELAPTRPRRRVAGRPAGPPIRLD

Structure (SMILES): O=C1c2ccccc2NC(c2cc(Cl)cc(Cl)c2O)N1Cc1cccnc1 (centres unmarked) [M2]
- SPR binding curve behaviour (specific or non-specific binding) (E. coli NTH-RNase E [1]): bind but at sites other than the intended target
- Steady State KD value (E. coli NTH-RNase E [1]): non-specific
- IC50 (E. coli NTH-RNase E [2]): > 40 mM
- Inhibition of catalysis by E. coli RNase E (in words) (E. coli NTH-RNase E [2]): did not inhibit RNase E
- IC50 (E. coli RNase G): > 40 mM

Structure (SMILES): Cc1onc(-c2c(Cl)cccc2Cl)c1C(=O)N=S(C)(C)=O [M3]
- SPR binding curve behaviour (specific or non-specific binding) (E. coli NTH-RNase E [1]): consistent with targeting of specific sites
- Kd (E. coli NTH-RNase E [1]): ~0.6 mM
- IC50 (E. coli NTH-RNase E [2]): > 40 mM
- IC50 (E. coli RNase G): > 40 mM

Structure (SMILES): CCOC(=O)NC(=O)c1cn(Nc2ncc(Cl)cc2C(F)(F)F)c(=O)[nH]c1=O [M5]
- SPR binding curve behaviour (specific or non-specific binding) (E. coli NTH-RNase E [1]): consistent with targeting of specific sites; also recorded: specific binding
- Kd (E. coli NTH-RNase E [1]): ~3 mM
- IC50 (E. coli NTH-RNase E [2]): 3.8 mM and ~3.8 mM
- activity at 3800 µM (E. coli NTH-RNase E [2]; [5]): 42%
- Inhibition of catalysis by E. coli RNase E (in words) (E. coli NTH-RNase E [2]): clearly inhibited catalysis
- Inhibition of the activity of RNase G (in words) (E. coli RNase G): able to inhibit the activity of RNase G
- IC50 (E. coli RNase G): 3.3 mM and ~3.3 mM
- Inhibition of M. tuberculosis RNase E (in words) (M. tuberculosis RNase E [3]): inhibits activity but appears to be less efficient
- SPR binding curves, M. tuberculosis RNase E (in words) (M. tuberculosis RNase E [4]): consistent with specific targeting

Structure (SMILES): Cc1c(C(=O)NNc2cc(C(F)(F)F)ccc2Cl)n(C)oc1=O [M8]
- SPR binding curve behaviour (specific or non-specific binding) (E. coli NTH-RNase E [1]): consistent with targeting of specific sites
- Kd (E. coli NTH-RNase E [1]): ~3.5 mM
- IC50 (E. coli NTH-RNase E [2]): ~3.2 mM
- Inhibition of catalysis by E. coli RNase E (in words) (E. coli NTH-RNase E [2]): clearly inhibited catalysis

Structure (SMILES): Cc1nnsc1-c1onc(C)c1C(=O)O/N=C/c1cccc(Cl)c1 [M9]
- SPR binding curve behaviour (specific or non-specific binding) (E. coli NTH-RNase E [1]): consistent with targeting of specific sites
- Kd (E. coli NTH-RNase E [1]): ~2 mM
- IC50 (E. coli NTH-RNase E [2]): ~18 mM
- Inhibition of catalysis by E. coli RNase E (in words) (E. coli NTH-RNase E [2]): inhibited catalysis but much less efficiently
- Inhibition of the activity of RNase G (in words) (E. coli RNase G): able to inhibit the activity of RNase G
- IC50 (E. coli RNase G): ~24 mM

Structure (SMILES): Cc1ccc(C)n1-c1nn(S(=O)(=O)c2cccc3nonc23)c2cccc(F)c12 [P6]
- SPR binding curve behaviour (specific or non-specific binding) (E. coli NTH-RNase E [1]): consistent with targeting of specific sites
- Inhibition of catalysis by E. coli RNase E (in words) (E. coli NTH-RNase E [2]): clearly inhibited catalysis
- Inhibition of the activity of RNase G (in words) (E. coli RNase G): able to inhibit the activity of RNase G

Structure (SMILES): Cc1ccc(S(=O)(=O)NC(=O)N2CCCN(c3ncnc4scc(-c5ccccc5)c34)CC2)cc1 [P10]
- SPR binding curve behaviour (specific or non-specific binding) (E. coli NTH-RNase E [1]): bind at sites other than the intended target; also recorded: non-specific binding
- Steady State KD value (E. coli NTH-RNase E [1]): non-specific
- IC50 (E. coli NTH-RNase E [2]): 1.9 mM and ~1.9 mM
- activity at 1900 µM (E. coli NTH-RNase E [2]; [5]): 44%
- Inhibition of catalysis by E. coli RNase E (in words) (E. coli NTH-RNase E [2]): inhibited RNase E
- Inhibition of the activity of RNase G (in words) (E. coli RNase G): able to inhibit the activity of RNase G
- IC50 (E. coli RNase G): 2.4 mM and ~2.4 mM

Structure (SMILES): Cc1ccc(S(=O)(=O)NC(=O)NCCSCc2c(C)cc(C)cc2C)cc1 [P11]
- SPR binding curve behaviour (specific or non-specific binding) (E. coli NTH-RNase E [1]): consistent with targeting of specific sites; also recorded: specific binding
- activity at 1800 µM (E. coli NTH-RNase E [2]; [5]): 62%
- Inhibition of catalysis by E. coli RNase E (in words) (E. coli NTH-RNase E [2]): clearly inhibited catalysis
- Inhibition of the activity of RNase G (in words) (E. coli RNase G): able to inhibit the activity of RNase G
- Inhibition of M. tuberculosis RNase E (in words) (M. tuberculosis RNase E [3]): clear inhibition
- SPR binding curves, M. tuberculosis RNase E (in words) (M. tuberculosis RNase E [4]): consistent with specific targeting
